# Laboratory results: PMC4326127, “Collagen Inhibitory Peptide R1R2 Mediates Vascular Remodeling by Decreasing Inflammation and Smooth Muscle Cell Activation” (PLoS ONE, 2015)
# Entries after “also recorded” stand apart in the source; their conditions may differ.
# How the values were obtained:
# [1] = tested on: FN; assay: IHC for FN in ligated carotid artery; assay type: in vivo, FVB/NJ (FVB) mice; conditions: for FN IHC intensity in intima-media area: mean ± SEM
# Description: (§1) Animals were anesthetized with isoflurane inhalation. The left common carotid artery was exposed, dissected free from the surrounding connective tissue and completely ligated with 6-0 silk suture just proximal to the carotid bifurcation. […] 4–10 mice were included in each experimental group.
# (§2) Paraffin sections selected from the first mm of the carotid artery in each group were used for immunohistochemistry (IHC). […] Sections were then incubated with appropriate biotinylated secondary antibodies followed by avidin-biotin immunoperoxidase system (Vector Laboratories, Burlingame, CA). Liquid DAB Substrate Chromogen system (Dako, Carpinteria, CA) was used for detection.
# (§3) Quantitative IHC analysis was performed on digital images captured with a 20x objective by using Image-Pro Plus software. Data from 3–6 mice for each group were averaged, and the average values ± SEM were shown. For FN, collagen type I, SM-MHC and SM α-actin, color digital images were transformed into gray scale, and the sum of the optical densities from the intima+media area in each section was determined. […] The percent of positive cells is reported as the proliferation index. […] The intima+media region was traced manually. The percent of positively stained area in intima+media to the total traced area was assessed.
# (§4) For in vivo experiments, the data are shown as the mean ± SEM. For in vitro experiments, the data shown are the means ± SD of a representative experiment, at least 3 independent experiments were performed. One-way ANOVA with post-hoc testing were used for data analysis with GraphPad Prism software (GraphPad, San Diego, CA). If normality test failed, nonparametric Kruskal-Wallis test followed by Dunn's post-hoc test were used. P > 0.05 was not considered significant.
# [2] = tested on: collagen-FN binding; conditions: in vitro; ref [29],[30],[33]; cited from earlier work
# Source text: (§5) In order to assess whether inhibiting collagen type I deposition reduces vascular remodeling in an in vivo mouse model, we used the collagen inhibitory peptide R1R2 for this study. The R1R2 peptide is derived from two repeat domains of the bacterial adhesin SFS, and is highly homologous to collagen. […] It is likely that R1R2 blocks collagen type I fibril formation around cells by binding to the collagen-binding domain of FN. To characterize the effects of our synth ...
# [3] = tested on: collagen type I; conditions: in vitro; ref [29],[30],[33]; cited from earlier work
# Source text: as §5
# [4] = tested on: smooth muscle cell; conditions: in vitro; ref [29],[30],[33]; cited from earlier work
# Source text: as §5
# [5] = tested on: VCAM-1; assay: Western blot of VCAM-1 in TNF-α-treated HUVECs; assay type: cell-based, human; conditions: in words
# Description: (§6) Human umbilical vein endothelial cells (HUVECs) and A7r5 SMCs were provided by Resource Center (SB3, NSC 100-2325-B-080-001), National Research Program for Biopharmaceuticals (Hsinchu, Taiwan). HUVECs were maintained in M199 (Life Technologies, Carlsbad, CA) with 25U/ml heparin (Sigma-Aldrich, St. Louis, MO), 10% fetal bovine serum (FBS) and endothelial cell growth supplement (ECGS; Millipore, Billerica, MA). A7r5 SMCs were grown in Dulbecco’s Modified Eagle’s Medium (DMEM) containing high glucose, supplemented with 10% fetal bovine serum. Human U937 cells were grown in RPMI1640 with 10% FBS.
# Tissues or cells were homogenized with RIPA buffer supplemented with protease inhibitor cocktail (Sigma-Aldrich, St. Louis, MO). Cell lysates were spun at 12,000 rpm for 15 min at 4°C, then electrophoresed on 10% SDS-PAGE gel and transferred to nitrocellulose. […]
# Fig 8 R1R2 decreases TNF-α-induced monocyte U937 cell adhesion to HUVECs and transendothelial migration and reduces ICAM-1 and VCAM-1 levels. […] Calcein-AM labeled U937 monocyte adhesion to TNF-α HUVECs was quantitated by fluorescence intensity. Microscopic images showing U937 monocytes adhering to HUVECs as assessed by in vitro adhesion assay. […]
# [6] = tested on: Ki-67 (+) cells; assay: Ki-67 IHC, cell proliferation in carotid intima and media; assay type: in vivo, FVB/NJ (FVB) mice; conditions: 7 days post-surgery, mean ± SEM, n = 5 each
# Description: as §1, §2, §3
# (§7) For in vivo experiments, the data are shown as the mean ± SEM. […]
# [7] = tested on: FN fibril; conditions: in vitro; ref [29]; cited from earlier work
# Source text: Therefore, we used the experimental group treated with scrambled peptide as the control group. In Fig. 3A and 3B, IHC analysi ... || In vitro studies have shown that FN is required as a scaffold for collagen deposition. Inhibiting FN polymerization with antibodies or inhibitors prevents FN and collagen fibril deposition into the ECM in vitro [27, 31].
# [8] = tested on: smooth muscle α-actin (SMAA); assay: IHC for smooth muscle α-actin in ligated carotid artery; assay type: in vivo, FVB/NJ (FVB) mice; conditions: 7 days post-ligation; mean ± SEM; scrambled n = 6, R1R2 n = 5 (sham 0.232 ± 0.011, n = 5)
# Description: as §1, §2, §3, §7
# [9] = tested on: A7r5 SMCs; assay: A7r5 SMC growth study; assay type: cell-based
# Description: as §6
# A7r5 cells and HUVECs were growth-arrested and then stimulated with 10% FBS or 10 ng/ml TNF-αovernight after serum starvation as indicated in the figure legend. Briefly, trypan blue-excluding cells were counted with a hemocytometer, and data were analyzed using GraphPad Prism Software (San Diego, CA) as in previous studies. A second observer performed a similar analysis to verify the initial findings.
# as §4
# Fig 6 R1R2 reduces SMC proliferation and migration. (A) A7r5 SMC growth study over 96 hours. After serum starvation and treatment with R1R2 or scrambled peptides for 36 hours, cells were stimulated with 10% FBS over 96 hours. Cells were counted at the indicated time in the figure (n = 5). (B) A7r5 SMCs were pretreated with R1R2 or scramble peptide for 36 hours. […] (C) Quantitation of SMC migration in the scratch wound healing assay was performed by subtracting the cell-free area 30 hours after PDGF-BB stimulation from the cell-free area in the beginning (n = 5). * indicates p<0.05 and ** p< 0.01.
sequence,measurement,setting,value
GLNGENQKEPEQGERGEAGPPLSGLSGNNQGRPSLPGLNGENQKEPEQGERGEAGPP [R1R2],effect on FN intensity,"[1]; 7 and 14 days after ligation, R1R2 vs scrambled peptide, in words",no significant decrease of FN intensity
same,FN IHC intensity in intima-media area,"[1]; 7 days after ligation, R1R2 n = 6, scrambled n = 6",0.153 ± 0.012
same,FN IHC intensity in intima-media area,"[1]; 14 days after ligation, R1R2 n = 7, scrambled n = 7",0.309 ± 0.005
same,effect on collagen-FN binding,[2],known to inhibit collagen-FN binding
same,effect on collagen type I deposition,[3],"known to inhibit collagen-FN binding, collagen type I deposition"
same,effect on smooth muscle cell migration,[4],"known to inhibit collagen-FN binding, collagen type I deposition, and smooth muscle cell migration in vitro"
same,VCAM-1 expression on HUVECs,[5],significantly decreased
same,proliferation index (Ki-67 (+) cells/total cells),[6],11.20 ± 0.62%
same,effect on FN fibril deposition/formation,[7],does not affect FN fibril deposition into the ECM; also recorded: does not alter FN fibril formation
same,SMAA IHC staining in intima-media area,[8],0.214 ± 0.004
same,effect on A7r5 SMC growth,"[9]; 48–96 hours, in comparison with scrambled peptide, in words",significantly inhibited A7r5 SMC growth after 48–96 hours
same,"A7r5 SMC growth, cell number","[9]; 48hr, 10% FBS after serum starvation and 36 hours peptide treatment, hemocytometer, trypan blue, mean ± SD, n = 5",1.5 ± 0.224 x 10^5
